As a reminder, the IC50 is the concentration that gives 50% inhibition.

Experiment [1] has as its system RKO (RKOp27) human colon adenocarcinoma cells. Briefly: Alamar Blue cell viability assay, anti-proliferative/cytotoxic activity on proliferating (uninduced) RKOp27 cells. It is filed as cell-based. Particulars: 72 hours incubation, absence of the inducer Ponasterone A, read-out: IC50 RKO p27 uninduced (proliferating). Here is the method:
The anti-proliferative/cytotoxic activity of the compounds described herein, can be tested on subclones of RKO (RKOp27) human colon adenocarcinoma cells (Schmidt et al., Oncogene 19, 2423-2429; 2000) using the Alamar Blue cell viability assay (described in O'Brien et al. Eur J Biochem 267, 5421-5426, 2000). The compounds are dissolved as 20 mM solutions in dimethylsulfoxide (DMSO) and subsequently diluted in semi-logarithmic steps. DMSO dilutions are further diluted 1:100 into Dulbecco's modified Eagle's medium (DMEM) containing 10% fetal calf serum to a final concentration twice as much as the final concentration in the test. RKO subclones are seeded into 96 well flat bottom plates at a density of 5000 cells per well in a volume of 50 μl per well. 24 hours after seeding the 50 μl each of the compound dilutions in DMEM medium are added into each well of the 96 Well plate. Each compound dilution is tested as quadruplicates. Wells containing untreated control cells are filled with 50 μl DMEM medium containing 1% DMSO. The cells are then incubated with the substances for 72 hours at 37° C. in a humified atmosphere containing 5% carbon dioxide. To determine the viability of the cells, 10 μl of an Alamar Blue solution (Biosource) are added and the fluorescence is measured at an extinction of 544 nm and an emission of 590 nm. For the calculation of the cell viability the emission value from untreated cells is set as 100% viability and the emission rates of treated cells are set in relation to the values of untreated cells. Viabilities are expressed as % values.
The corresponding IC50 values of the compounds for anti-proliferative/cytotoxic activity are determined from the concentration-effect curves.
Representative IC50 values for anti-proliferation/cytotoxicity determined in the mentioned assay follow from the following table A, in which the numbers of the compounds correspond to the numbers of the examples.
(Alamar Blue is a resazurin reagent that responds to reducing activity.)

In experiment [2] the test system is RKO colon adenocarcinoma cells (RKOp27) arrested by the expression of ectopic p27Kip1. Briefly: Alamar Blue cell viability assay on RKOp27 cells arrested by p27Kip1 expression induced by Ponasterone A. Particulars: Homo sapiens, 72 hours incubation, 10 μM Ponasterone A, read-out: IC50 RKO p27 induced (arrested). Type of experiment: cell-based. The protocol: To determine the cell cycle specific mode of action, subclones of RKO colon adenocarcinoma cells (RKOp27 or RKOp21 as described by Schmidt et al. in Oncogene 19, 2423-2429; 2000) are seeded into 96 well flat bottom plates at a density of 15000 cells per well in a volume of 50 μl per well in DMEM growth medium with 10% FCS containing 10 μM Ponasterone A. 24 hours after seeding the 50 μl each of the compound dilutions in DMEM medium are added into each well of the 96 Well plate. Each compound dilution is tested as quadruplicates. Wells containing untreated control cells are filled with 50 μl DMEM medium containing 1% DMSO. The cells are then incubated with the substances for 72 hours at 37° C. in a humidified atmosphere containing 5% carbon dioxide. To determine the viability of the cells, 10 μl of an Alamar Blue solution (Biosource) are added and the fluorescence was measured at an extinction of 544 nm and an emission of 590 nm. For the calculation of the cell viability the emission value from untreated cells is set as 100% viability and the emission rates of treated cells are set in relation to the values of untreated cells. Viabilities are expressed as % values. Viability is compared of proliferating cells grown in the absence of the inducer Ponasterone A, versus viability of cells arrested by the expression of ectopic p27Kip1 induced by Ponasterone A.

Each structure is given as a SMILES string.

As for `COCC(=O)N1CCc2c(sc(NC(=O)CCc3ccccc3OC)c2C#N)C1` [Example 5, N-[3-Cyano-6-(2-methoxy-ethanoyl)-4,5,6,7-tetrahydro-thieno[2,3-c]pyridin-2-yl]-3-(2-methoxy-phenyl)-propionamide], the values for the IC50 in experiment [1] and in experiment [2] were at most 300 nM and above 100000 nM, respectively.
The like results for `COCCOCC(=O)N1CCc2c(sc(NC(=O)CCc3ccccc3OC)c2C#N)C1` [Example 6, N-{3-Cyano-6-[2-(2-methoxy-ethoxy)-ethanoyl]-4,5,6,7-tetrahydro-thieno[2,3-c]pyridin-2-yl}-3-(2-methoxy-phenyl)-propionamide] were, in that order, 300 to 2000 nM and at least 40000 nM.
Take `COc1ccccc1CCC(=O)Nc1sc2c(c1C#N)CCN(C(=O)COC(C)=O)C2` [Example 7, Acetic acid 2-{3-cyano-2-[3-(2-methoxy-phenyl)-propanoylamino]-4,7-dihydro-5H-thieno[2,3-c]pyridin-6-yl}-2-oxo-ethyl ester]: the values for the IC50 in experiment [1] and in experiment [2] were at most 300 nM and above 100000 nM, respectively.
The like results for `CCOc1ccccc1CCC(=O)Nc1sc2c(c1C#N)CCN(C(=O)COC(C)=O)C2` [Example 10, Acetic acid 2-{3-cyano-2-[3-(2-ethoxy-phenyl)-propanoylamino]-4,7-dihydro-5H-thieno[2,3-c]pyridin-6-yl}-2-oxo-ethyl ester] were, in that order, at most 300 nM and above 100000 nM.
Taken in the same sequence, the figures for `COCCC(=O)N1CCc2c(sc(NC(=O)CCc3cccc(OC)c3)c2C#N)C1` [Example 12, N-[3-Cyano-6-(3-methoxy-propanoyl)-4,5,6,7-tetrahydro-thieno[2,3-]pyridin-2-yl]-3-(3-methoxy-phenyl)-propionamide] were 300 to 2000 nM and above 100000 nM.
The like results for `CCOc1ccccc1CCC(=O)Nc1sc2c(c1C#N)CCN(C(=O)CCOC)C2` [Example 13, N-[3-Cyano-6-(3-methoxy-propanoyl)-4,5,6,7-tetrahydro-thieno[2,3-c]pyridin-2-yl]-3-(2-ethoxy-phenyl)-propionamide] were, in that order, at most 300 nM and above 100000 nM.
Consider `COc1cccc(CCC(=O)Nc2sc3c(c2C#N)CCN(C(=O)CCc2cccnc2)C3)c1` [Example 14, N-[3-Cyano-6-(3-pyridin-3-yl-propanoyl)-4,5,6,7-tetrahydro-thieno[2,3-c]pyridin-2-yl]-3-(3-methoxy-phenyl)-propionamide], for which the values for the IC50 in experiment [1] and in experiment [2] were 300 to 2000 nM and above 100000 nM, respectively.
The like results for `COc1cccc(CCC(=O)Nc2sc3c(c2C#N)CCN(C(=O)CCc2ccncc2)C3)c1` [Example 15, N-[3-Cyano-6-(3-pyridin-4-yl-propanoyl)-4,5,6,7-tetrahydro-thieno[2,3-c]pyridin-2-yl]-3-(3-methoxy-phenyl)-propionamide] were, in that order, 300 to 2000 nM and above 100000 nM.
Taken in the same sequence, the figures for `COc1cccc(CCC(=O)Nc2sc3c(c2C#N)CCN(C(=O)CCc2ccccn2)C3)c1` [Example 16, N-[3-Cyano-6-(3-pyridin-2-yl-propanoyl)-4,5,6,7-tetrahydro-thieno[2,3-c]pyridin-2-yl]-3-(3-methoxy-phenyl)-propionamide] were 300 to 2000 nM and above 100000 nM.
The like results for `CCOc1ccccc1CCC(=O)Nc1sc2c(c1C#N)CCN(C(=O)CCc1ccccn1)C2` [Example 17, N-[3-Cyano-6-(3-pyridin-2-yl-propanoyl)-4,5,6,7-tetrahydro-thieno[2,3-c]pyridin-2-yl]-3-(2-ethoxy-phenyl)-propionamide] were, in that order, at most 300 nM and at least 40000 nM.
`COCC(=O)N1CCc2c(sc(NC(=O)CCc3cccc(OC)c3)c2C#N)C1` [Example 18, N-[3-Cyano-6-(2-methoxy-ethanoyl)-4,5,6,7-tetrahydro-thieno[2,3-c]pyridin-2-yl]-3-(3-methoxy-phenyl)-propionamide]: the IC50 was 300 to 2000 nM in experiment [1] and above 100000 nM in experiment [2].
Taken in the same sequence, the figures for `CCOc1ccccc1CCC(=O)Nc1sc2c(c1C#N)CCN(C(=O)COC)C2` [Example 19, N-[3-Cyano-6-(2-methoxy-ethanoyl)-4,5,6,7-tetrahydro-thieno[2,3-c]pyridin-2-yl]-3-(2-ethoxy-phenyl)-propionamide] were at most 300 nM and above 100000 nM.
Taken in the same sequence, the figures for `COc1cccc(CCC(=O)Nc2sc3c(c2C#N)CCN(C(=O)CCn2ccnc2)C3)c1` [Example 20, N-[3-Cyano-6-(3-imidazol-1-yl-propanoyl)-4,5,6,7-tetrahydro-thieno[2,3-c]pyridin-2-yl]-3-(3-methoxy-phenyl)-propionamide] were 300 to 2000 nM and at least 40000 nM.
Taken in the same sequence, the figures for `COc1cccc(CCC(=O)Nc2sc3c(c2C#N)CCN(C(=O)CCCO)C3)c1` [Example 21, N-[3-Cyano-6-(4-hydroxy-butanoyl)-4,5,6,7-tetrahydro-thieno[2,3-c]pyridin-2-yl]-3-(3-methoxy-phenyl)-propionamide] were 300 to 2000 nM and above 100000 nM.
As for `CCOc1ccccc1CCC(=O)Nc1sc2c(c1C#N)CCN(C(=O)CCc1cccnc1)C2` [Example 22, N-[3-Cyano-6-(3-pyridin-3-yl-propanoyl)-4,5,6,7-tetrahydro-thieno[2,3-c]pyridin-2-yl]-3-(2-ethoxy-phenyl)-propionamide], the values for the IC50 in experiment [1] and in experiment [2] were at most 300 nM and above 100000 nM, respectively.
`CCCC(=O)N1CCc2c(sc(NC(=O)CCc3cccc(OC)c3)c2C#N)C1` [Example 23, N-(6-Butyryl-3-cyano-4,5,6,7-tetrahydro-thieno[2,3-c]pyridin-2-yl)-3-(3-methoxy-phenyl)-propionamide]: the results for the IC50 in experiment [1] and in experiment [2] were at most 300 nM and above 100000 nM, respectively.
Taken in the same sequence, the figures for `CCCC(=O)N1CCc2c(sc(NC(=O)CCc3ccccc3OCC)c2C#N)C1` [Example 24, N-(6-Butyryl-3-cyano-4,5,6,7-tetrahydro-thieno[2,3-c]pyridin-2-yl)-3-(2-ethoxy-phenyl)-propionamide] were at most 300 nM and above 100000 nM.
The like results for `CCOc1ccccc1CCC(=O)Nc1sc2c(c1C#N)CCN(C(=O)COCCOC)C2` [Example 25, N-{3-Cyano-6-[2-(2-methoxy-ethoxy)-ethanoyl]-4,5,6,7-tetrahydro-thieno[2,3-c]pyridin-2-yl}-3-(2-ethoxy-phenyl)-propionamide] were, in that order, at most 300 nM and above 100000 nM.
Taken in the same sequence, the figures for `CCOc1ccccc1CCC(=O)Nc1sc2c(c1C#N)CCN(C(=O)Cc1ccccn1)C2` [Example 26, N-[3-Cyano-6-(2-pyridin-2-yl-ethanoyl)-4,5,6,7-tetrahydro-thieno[2,3-c]pyridin-2-yl]-3-(2-ethoxy-phenyl)-propionamide] were at most 300 nM and at least 10000 nM.
On to `CCOc1ccccc1CCC(=O)Nc1sc2c(c1C#N)CCN(C(=O)Cc1cccnc1)C2` [Example 27, N-[3-Cyano-6-(2-pyridin-3-yl-ethanoyl)-4,5,6,7-tetrahydro-thieno[2,3-c]pyridin-2-yl]-3-(2-ethoxy-phenyl)-propionamide], for which the IC50 in experiment [1] is at most 300 nM; in experiment [2], at least 40000 nM.
Taken in the same sequence, the figures for `COc1cccc(CCC(=O)Nc2sc3c(c2C#N)CCN(C(=O)CO)C3)c1` [Example 28, N-[3-Cyano-6-(2-hydroxy-ethanoyl)-4,5,6,7-tetrahydro-thieno[2,3-c]pyridin-2-yl]-3-(3-methoxy-phenyl)-propionamide] were 300 to 2000 nM and above 100000 nM.
Turning to `COc1ccc(C)cc1CCC(=O)Nc1sc2c(c1C#N)CCN(C(=O)CCc1cccnc1)C2` [Example 29, N-[3-Cyano-6-(3-pyridin-3-yl-propanoyl)-4,5,6,7-tetrahydro-thieno[2,3-c]pyridin-2-yl]-3-(2-methoxy-5-methyl-phenyl)-propionamide], the IC50 is 300 to 2000 nM in experiment [1] and above 100000 nM in experiment [2].

These data come from patent US7763728B2, “Tetrahydropyridothiophenes” (4SC AG, priority 2005, dated 2010).
